{"source": "paper PMC9523973", "about": "(Cell reports, 2022)", "key": {"[1]": {"target": "human NaV1.7 tamoxifen receptor (Homo sapiens, UniProt Q15858)", "sequence (Q15858 whole entry)": "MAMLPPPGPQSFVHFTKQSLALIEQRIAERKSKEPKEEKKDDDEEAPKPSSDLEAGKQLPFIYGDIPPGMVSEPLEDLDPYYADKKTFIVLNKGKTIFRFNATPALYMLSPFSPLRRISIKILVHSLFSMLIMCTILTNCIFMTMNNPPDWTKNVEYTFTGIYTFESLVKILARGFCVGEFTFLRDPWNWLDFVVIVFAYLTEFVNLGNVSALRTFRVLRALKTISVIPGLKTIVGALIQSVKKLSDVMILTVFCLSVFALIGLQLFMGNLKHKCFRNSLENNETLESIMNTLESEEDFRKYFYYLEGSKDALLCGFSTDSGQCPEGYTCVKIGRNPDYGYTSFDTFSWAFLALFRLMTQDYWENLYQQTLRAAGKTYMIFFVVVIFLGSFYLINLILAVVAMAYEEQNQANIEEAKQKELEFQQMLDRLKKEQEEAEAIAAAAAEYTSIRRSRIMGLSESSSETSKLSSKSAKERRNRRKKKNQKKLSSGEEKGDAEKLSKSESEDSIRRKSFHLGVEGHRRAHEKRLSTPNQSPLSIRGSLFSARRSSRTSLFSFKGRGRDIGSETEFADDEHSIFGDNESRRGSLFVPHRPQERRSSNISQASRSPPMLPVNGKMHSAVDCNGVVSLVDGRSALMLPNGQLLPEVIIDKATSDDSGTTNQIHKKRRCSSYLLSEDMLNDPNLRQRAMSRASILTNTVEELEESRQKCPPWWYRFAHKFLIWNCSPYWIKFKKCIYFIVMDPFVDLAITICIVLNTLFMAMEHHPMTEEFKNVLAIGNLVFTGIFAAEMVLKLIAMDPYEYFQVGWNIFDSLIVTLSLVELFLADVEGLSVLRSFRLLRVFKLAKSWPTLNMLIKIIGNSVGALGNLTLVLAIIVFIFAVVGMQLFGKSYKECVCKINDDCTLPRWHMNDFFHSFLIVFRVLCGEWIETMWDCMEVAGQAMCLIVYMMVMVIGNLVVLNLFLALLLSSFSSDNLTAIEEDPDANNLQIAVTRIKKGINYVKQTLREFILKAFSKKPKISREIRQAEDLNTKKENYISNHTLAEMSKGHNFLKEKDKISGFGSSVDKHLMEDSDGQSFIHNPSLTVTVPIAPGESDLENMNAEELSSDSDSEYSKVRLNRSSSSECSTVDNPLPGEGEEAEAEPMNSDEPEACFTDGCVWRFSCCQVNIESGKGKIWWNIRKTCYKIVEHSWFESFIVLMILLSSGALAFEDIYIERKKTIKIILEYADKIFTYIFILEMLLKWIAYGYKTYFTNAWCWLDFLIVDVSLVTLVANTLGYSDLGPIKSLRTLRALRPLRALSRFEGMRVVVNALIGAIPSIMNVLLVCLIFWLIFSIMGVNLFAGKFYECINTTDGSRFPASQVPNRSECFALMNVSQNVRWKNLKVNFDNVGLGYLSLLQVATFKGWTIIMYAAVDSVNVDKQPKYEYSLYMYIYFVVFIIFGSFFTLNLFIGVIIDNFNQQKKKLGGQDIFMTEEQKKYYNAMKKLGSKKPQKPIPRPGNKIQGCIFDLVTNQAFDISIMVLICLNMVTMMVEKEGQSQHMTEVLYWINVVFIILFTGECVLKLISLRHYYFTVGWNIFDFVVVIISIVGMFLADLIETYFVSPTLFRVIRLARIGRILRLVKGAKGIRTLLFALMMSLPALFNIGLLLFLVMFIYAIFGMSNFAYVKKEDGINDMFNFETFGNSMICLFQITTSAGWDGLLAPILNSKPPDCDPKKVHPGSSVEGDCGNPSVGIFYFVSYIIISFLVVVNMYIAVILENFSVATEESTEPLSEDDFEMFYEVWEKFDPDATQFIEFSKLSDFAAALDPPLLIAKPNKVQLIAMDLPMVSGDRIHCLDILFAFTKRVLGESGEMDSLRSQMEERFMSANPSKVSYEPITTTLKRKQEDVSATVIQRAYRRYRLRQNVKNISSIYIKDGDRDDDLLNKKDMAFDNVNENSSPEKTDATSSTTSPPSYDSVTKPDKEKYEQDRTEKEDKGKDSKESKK", "assay": "NaV1.7 tritium-labeled tamoxifen competitive binding assay", "conditions": "competition with H^3-Tam"}, "human NaV1.7": {"target": "human NaV1.7 (Homo sapiens, UniProt Q15858)", "sequence (Q15858 whole entry)": "as above", "sequence (Q07699 19-218 partner)": "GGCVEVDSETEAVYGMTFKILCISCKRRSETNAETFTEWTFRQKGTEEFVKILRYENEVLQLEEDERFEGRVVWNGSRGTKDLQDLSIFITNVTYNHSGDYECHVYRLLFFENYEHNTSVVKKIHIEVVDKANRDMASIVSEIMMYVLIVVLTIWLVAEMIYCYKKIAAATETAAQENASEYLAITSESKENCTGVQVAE", "assay": "Voltage clamp of expressed WT NaV1.7 INa"}, "[2]": {"system": "endogenously expressed NaVs in cultured DRG neurons", "assay": "Whole cell voltage clamp of sodium current", "format": "cell-based, mouse", "conditions": "for IC50: read-out: IC50 of DRG INa inhibition"}, "[3]": {"system": "knee hyperalgesia in mice after DMM surgery", "assay": "In vivo osteoarthritis pain model", "parameters": "species or system mouse", "conditions": "for knee hyperalgesia vs vehicle, 30 minutes after injection / knee withdrawal threshold vs vehicle through 3 hours: 50 μM intra-articular in 0.1% DMSO"}, "NaV1.7 D1458A": {"target": "NaV1.7 D1458A (Homo sapiens, UniProt Q15858, D1458A)", "sequence (Q15858 whole entry D1458A, the tested form may be a part)": "as the sequence (Q15858 whole entry) above, with D1458A counted along it", "sequence (Q07699 19-218 partner)": "as the sequence (Q07699 19-218 partner) above", "assay": "Voltage clamp of NaV1.7 alanine substitution in domain III", "format": "cell-based", "conditions": "vs WT NaV1.7"}, "NaV1.7 F1748A and Y1755A": {"system": "NaV1.7 F1748A and Y1755A", "assay": "Voltage clamp of NaV1.7 local anesthetic binding site mutations", "format": "cell-based, human", "conditions": "vs WT NaV1.7"}, "[4]": {"target": "NaV1.7 S969A:D1761A double mutant (Homo sapiens, UniProt Q15858, E1761A/S969A)", "sequence (Q15858 whole entry S969A/E1761A)": "as the sequence (Q15858 whole entry) above, with S969A, E1761A counted along it", "sequence (Q07699 19-218 partner)": "as the sequence (Q07699 19-218 partner) above", "format": "cell-based", "conditions": "read-out: IC50 of INa inhibition, S969A:D1761A double mutant channels"}, "[5]": {"system": "NaV1.7 S969A:D1761A double mutant", "format": "cell-based, human"}, "DRG action potentials": {"system": "DRG action potentials", "assay": "Current clamp recording of cultured DRG neuron action potentials", "format": "cell-based, mouse"}, "[6]": {"system": "NaV1.7 DII S969A and DIV D1761A", "format": "cell-based, human", "conditions": "vs WT NaV1.7"}, "[7]": {"system": "knee hyperalgesia in mice after DMM surgery", "conditions": "20 mg/kg, ~0.85M, ref Miller et al., 2018; cited from earlier work"}}, "note": "Entries after “also recorded” stand apart in the source; their conditions may differ. Read-outs that look alike come from different tables or passages of the source.", "data": [{"molecule": "4-hydroxy-N-desmethyl benzophenone [4OH-ND-BP]", "values": [{"measurement": "binding to NaV1.7 (in words)", "setting": "[1]", "result": "specific binding"}]}, {"molecule": "O=C(c1ccccc1)c1ccc(O)cc1", "note": "[4OH-BP, 4-hydroxy benzophenone]", "values": [{"measurement": "binding to NaV1.7 (in words)", "setting": "[1]", "result": "specific binding"}]}, {"molecule": "CC/C(=C(\\c1ccc(O)cc1)c1ccc(OCCN(C)C)cc1)c1ccccc1", "note": "[4OH-Tam, 4-hydroxy tamoxifen]", "values": [{"measurement": "Hill slope coefficient of NaV1.7 INa inhibition", "setting": "human NaV1.7", "result": 1.9}, {"measurement": "inhibition of DRG neuron INa (in words)", "setting": "[2]", "result": "inhibit DRG neuron INa"}]}, {"molecule": "C=C(C)[C@@H]1CCC(C)=C[C@H]1c1c(O)cc(CCCCC)cc1O", "note": "[CBD, cannabidiol, reference compound]", "values": [{"measurement": "knee hyperalgesia vs vehicle, 30 minutes after injection", "setting": "[3]; 4 weeks after DMM", "result": "effectively inhibited knee hyperalgesia"}, {"measurement": "knee withdrawal threshold vs vehicle through 3 hours", "setting": "[3]; 4 weeks after DMM", "result": "remained elevated compared to vehicle control"}]}, {"molecule": "CC/C(=C(\\c1ccccc1)c1ccc(OCCNC)cc1)c1ccccc1", "note": "[ND-Tam, N-desmethyl tamoxifen]", "values": [{"measurement": "change in potency or slope", "setting": "NaV1.7 D1458A", "result": "no change in potency or slope"}, {"measurement": "change in ND-Tam potency", "setting": "NaV1.7 F1748A and Y1755A", "result": "little change"}, {"measurement": "IC50", "setting": "[4]", "result": 36000, "unit": "nM"}, {"measurement": "potency reduction compared to WT NaV1.7", "setting": "[5]", "result": "more than 21 times"}, {"measurement": "Hill slope coefficient of NaV1.7 INa inhibition", "setting": "human NaV1.7", "result": 2.2}, {"measurement": "IC50", "setting": "human NaV1.7; read-out: IC50 of INa inhibition, WT NaV1.7", "result": 1700, "unit": "nM"}, {"measurement": "inhibition of DRG neuron INa (in words)", "setting": "[2]", "result": "inhibit DRG neuron INa"}, {"measurement": "frequency dependence of DRG INa inhibition", "setting": "[2]; 300 nM at 0.1, 10 and 20 Hz", "result": "enhanced current inhibition at greater depolarization frequencies"}, {"measurement": "block of the total INa", "setting": "[2]; 1 μM", "result": "≈ 45%"}, {"measurement": "change in half-maximal activation of conductance (GV1/2)", "setting": "[2]; 1 μM", "result": "no change"}, {"measurement": "voltage-dependence of inactivation after drug treatment", "setting": "[2]; 1 μM", "result": "−51.9 ± 0.4", "unit": "mV"}, {"measurement": "half-maximal conductance-voltage relationship (V1/2)", "setting": "[2]; 1 μM ND-Tam conditions", "result": "−37.7 ± 0.4", "unit": "mV"}, {"measurement": "IC50", "setting": "[2]; −40 mV holding potential", "result": 3.9, "unit": "nM"}, {"measurement": "IC50", "setting": "[2]; −60 mV holding potential", "result": 112, "unit": "nM"}, {"measurement": "INa that did not recover after removing drug from the bath", "setting": "[2]; waiting 5 minutes after removal", "result": "86 ± 5", "unit": "%"}, {"measurement": "impact on the resting membrane potential", "setting": "DRG action potentials; 100 nM, spontaneously firing neurons", "result": "insignificant impact"}, {"measurement": "reduction of the frequency of spontaneous action potentials", "setting": "DRG action potentials; 100 nM, three-minute extracellular application, no current injected", "result": 91, "unit": "%"}, {"measurement": "inhibition of action potential frequency and peak amplitude after washout", "setting": "DRG action potentials; control saline for 2 minutes after drug", "result": "persistent"}, {"measurement": "area under the curve analysis of the first 3.5 hours post injection", "setting": "[3]; 0.5 μM, after 3rd daily injection, compared to lidocaine or vehicle", "result": "superior efficacy"}, {"measurement": "knee hyperalgesia vs vehicle", "setting": "[3]; 50 μM (~0.002 mg/kg) intra-articular, vehicle 50% EtOH, 4 weeks after DMM, 30 minutes after injection", "result": "rapidly inhibited knee hyperalgesia pain; also recorded: provided relief from hyperalgesia"}, {"measurement": "knee hyperalgesia vs vehicle, 30 minutes after injection", "setting": "[3]; 4 weeks after DMM", "result": "effectively inhibited knee hyperalgesia"}, {"measurement": "knee withdrawal threshold vs vehicle through 3 hours", "setting": "[3]; 4 weeks after DMM", "result": "remained elevated compared to vehicle control"}, {"measurement": "reduced potency of INa inhibition", "setting": "[6]", "result": "3–7 times"}]}, {"molecule": "CNCCOc1ccccc1", "note": "[NM2P, N-methyl 2 phenoxyethanamine]", "values": [{"measurement": "binding to NaV1.7 (in words)", "setting": "[1]", "result": "specific binding"}]}, {"molecule": "CCN(CC)CC(=O)Nc1c(C)cccc1C", "note": "[lidocaine, reference compound]", "values": [{"measurement": "knee hyperalgesia after local injection of a high dose", "setting": "[7]", "result": "able to acutely reverse knee hyperalgesia"}, {"measurement": "knee hyperalgesia vs vehicle, 30 minutes after injection", "setting": "[3]; 4 weeks after DMM", "result": "effectively inhibited knee hyperalgesia"}, {"measurement": "knee withdrawal threshold vs vehicle through 3 hours", "setting": "[3]; 4 weeks after DMM", "result": "remained elevated compared to vehicle control"}]}]}
